Laboratory results as given in US11339128B2 (Firmenich Incorporated, priority 2014, dated 2022).
Structures can show the parent of a compound that is named as a salt.

Biological target: T1, T1R2/T1R3 taste receptor (Homo sapiens, UniProt Q7RTX0+Q8TE23)
T1 sequence (Q8TE23 20-839): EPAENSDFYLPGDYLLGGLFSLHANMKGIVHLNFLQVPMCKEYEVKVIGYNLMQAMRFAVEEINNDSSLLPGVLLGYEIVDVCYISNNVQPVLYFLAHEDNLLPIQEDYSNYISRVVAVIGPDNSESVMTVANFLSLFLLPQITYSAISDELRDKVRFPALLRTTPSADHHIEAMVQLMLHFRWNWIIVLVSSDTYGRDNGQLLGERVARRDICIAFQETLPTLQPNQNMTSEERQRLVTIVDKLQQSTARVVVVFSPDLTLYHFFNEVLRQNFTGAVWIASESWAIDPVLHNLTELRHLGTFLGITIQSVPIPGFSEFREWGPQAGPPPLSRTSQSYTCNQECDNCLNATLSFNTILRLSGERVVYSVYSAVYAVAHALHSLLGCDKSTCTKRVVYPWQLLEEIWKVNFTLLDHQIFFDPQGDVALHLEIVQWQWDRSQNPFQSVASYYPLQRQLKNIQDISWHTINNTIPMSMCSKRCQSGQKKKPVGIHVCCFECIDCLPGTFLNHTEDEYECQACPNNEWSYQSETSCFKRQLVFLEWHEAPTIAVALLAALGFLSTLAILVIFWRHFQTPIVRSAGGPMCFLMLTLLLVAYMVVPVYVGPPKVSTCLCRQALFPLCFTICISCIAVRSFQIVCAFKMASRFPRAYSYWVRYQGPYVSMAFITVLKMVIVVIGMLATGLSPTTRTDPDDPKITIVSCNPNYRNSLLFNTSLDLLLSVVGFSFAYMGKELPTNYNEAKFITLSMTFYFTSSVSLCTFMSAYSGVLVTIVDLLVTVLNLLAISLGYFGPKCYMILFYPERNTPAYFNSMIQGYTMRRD
T1 sequence (Q7RTX0 21-852): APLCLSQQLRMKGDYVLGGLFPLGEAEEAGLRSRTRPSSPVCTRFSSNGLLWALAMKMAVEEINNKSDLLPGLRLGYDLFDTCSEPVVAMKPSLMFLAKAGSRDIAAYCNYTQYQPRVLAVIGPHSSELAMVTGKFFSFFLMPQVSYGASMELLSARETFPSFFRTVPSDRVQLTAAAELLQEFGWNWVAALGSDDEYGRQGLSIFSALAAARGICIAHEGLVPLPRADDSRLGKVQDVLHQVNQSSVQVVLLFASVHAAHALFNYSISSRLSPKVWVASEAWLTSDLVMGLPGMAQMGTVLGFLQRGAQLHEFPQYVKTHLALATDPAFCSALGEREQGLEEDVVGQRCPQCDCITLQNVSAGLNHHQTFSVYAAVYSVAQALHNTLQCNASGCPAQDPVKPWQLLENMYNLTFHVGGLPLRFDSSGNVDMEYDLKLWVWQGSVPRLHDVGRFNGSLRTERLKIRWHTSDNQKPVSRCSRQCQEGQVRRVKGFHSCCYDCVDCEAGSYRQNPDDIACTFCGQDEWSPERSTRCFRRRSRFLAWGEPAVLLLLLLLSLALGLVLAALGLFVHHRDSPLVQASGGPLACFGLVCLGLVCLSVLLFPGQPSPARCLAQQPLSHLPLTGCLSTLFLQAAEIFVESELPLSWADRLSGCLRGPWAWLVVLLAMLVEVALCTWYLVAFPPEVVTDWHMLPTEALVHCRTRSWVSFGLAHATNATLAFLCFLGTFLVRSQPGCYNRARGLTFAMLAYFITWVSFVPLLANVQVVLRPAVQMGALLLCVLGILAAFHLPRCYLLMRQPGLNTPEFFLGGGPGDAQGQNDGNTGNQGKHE
Test: Receptor-based assay: sweetener EC50 enhancement ratio with and without test compound
Type: cell-based
Details: for Sucrose Enhancement EC50 Ratio: sweetener sucrose; for Fructose Enhancement EC50 Ratio: sweetener fructose; for Sucralose Enhancement EC50 Ratio: sweetener sucralose
In short: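 Sweetener (sucrose, sucralose, fructose) EC50 measured alone and with 1, 3, 10 or 50 μM test compound. Enhancement ratio = EC50 without/with compound; A = >1 to <10, B = 10–20, C = >20.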

Structure (SMILES): Cc1nc2cccc(O[C@H]3CC[C@H](NC(=O)CN4CCOCC4)CC3)c2c(N)c1C(=O)O.Cl [Compound 600, 4-Amino-2-methyl-5-((trans-4-(2-morpholinoacetamido)cyclohexyl)oxy) quinolone-3-carboxylic acid (HCl)]
- Sucrose Enhancement EC50 Ratio (1 μM test compound): B (an enhancement ratio from 10 to 20)
- Sucrose Enhancement EC50 Ratio (3 μM test compound): C (an enhancement ratio greater than 20)

Structure (SMILES): COCC(=O)NC[C@H]1CC[C@H](Oc2cccc3nc(C)c(C(=O)O)c(N)c23)CC1 [Compound 601]
- Sucrose Enhancement EC50 Ratio (1 μM test compound): A (an enhancement ratio of greater than 1 and less than 10)
- Sucrose Enhancement EC50 Ratio (3 μM test compound): C (an enhancement ratio greater than 20)
- Fructose Enhancement EC50 Ratio (10 μM test compound): A (an enhancement ratio of greater than 1 and less than 10)
- Sucrose Enhancement EC50 Ratio (10 μM test compound): C (an enhancement ratio greater than 20)

Structure (SMILES): Cc1nc2cccc(O[C@H]3CC[C@H](CN)CC3)c2c(N)c1C(=O)O.Cl [Compound 602]
- Sucrose Enhancement EC50 Ratio (1 μM test compound): A (an enhancement ratio of greater than 1 and less than 10)
- Sucrose Enhancement EC50 Ratio (3 μM test compound): A (an enhancement ratio of greater than 1 and less than 10)
- Fructose Enhancement EC50 Ratio (10 μM test compound): A (an enhancement ratio of greater than 1 and less than 10)
- Sucrose Enhancement EC50 Ratio (10 μM test compound): C (an enhancement ratio greater than 20)

Structure (SMILES): CCOCC(=O)NC[C@H]1CC[C@H](Oc2cccc3nc(C)c(C(=O)O)c(N)c23)CC1 [Compound 603]
- Sucrose Enhancement EC50 Ratio (1 μM test compound): A (an enhancement ratio of greater than 1 and less than 10)
- Sucrose Enhancement EC50 Ratio (3 μM test compound): C (an enhancement ratio greater than 20)
- Sucralose Enhancement EC50 Ratio (10 μM test compound): C (an enhancement ratio greater than 20)
- Sucrose Enhancement EC50 Ratio (10 μM test compound): C (an enhancement ratio greater than 20)

Structure (SMILES): Cc1nc2cccc(O[C@H]3CC[C@H](Nc4ccccn4)CC3)c2c(N)c1C(=O)O [Compound 701, 4-Amino-2-methyl-5-((trans-4-(pyridin-2-ylamino)cyclohexyl)oxy) quinoline-3-carboxylic acid]
- Sucrose Enhancement EC50 Ratio (1 μM test compound): A (an enhancement ratio of greater than 1 and less than 10)
- Sucralose Enhancement EC50 Ratio (3 μM test compound): C (an enhancement ratio greater than 20)
- Sucrose Enhancement EC50 Ratio (3 μM test compound): B (an enhancement ratio from 10 to 20)
- Sucralose Enhancement EC50 Ratio (10 μM test compound): C (an enhancement ratio greater than 20)
- Sucrose Enhancement EC50 Ratio (10 μM test compound): B (an enhancement ratio from 10 to 20)

Structure (SMILES): Cc1cc(C)nc(N[C@H]2CC[C@H](Oc3cccc4nc(C)c(C(=O)O)c(N)c34)CC2)n1 [Compound 702, 4-Amino-5-((trans-4-((4,6-dimethylpyrimidin-2-yl)amino)cyclohexyl)oxy)-2-methylquinoline-3-carboxylic (HCl)]
- Sucrose Enhancement EC50 Ratio (1 μM test compound): A (an enhancement ratio of greater than 1 and less than 10)
- Sucralose Enhancement EC50 Ratio (3 μM test compound): A (an enhancement ratio of greater than 1 and less than 10)
- Sucrose Enhancement EC50 Ratio (3 μM test compound): A (an enhancement ratio of greater than 1 and less than 10)
- Sucralose Enhancement EC50 Ratio (10 μM test compound): B (an enhancement ratio from 10 to 20)
- Sucrose Enhancement EC50 Ratio (10 μM test compound): A (an enhancement ratio of greater than 1 and less than 10)

Structure (SMILES): COc1cnc(N[C@H]2CC[C@H](Oc3cccc4nc(C)c(C(=O)O)c(N)c34)CC2)nc1 [Compound 703]
- Sucrose Enhancement EC50 Ratio (1 μM test compound): A (an enhancement ratio of greater than 1 and less than 10)
- Sucralose Enhancement EC50 Ratio (3 μM test compound): B (an enhancement ratio from 10 to 20)
- Sucrose Enhancement EC50 Ratio (3 μM test compound): A (an enhancement ratio of greater than 1 and less than 10)
- Fructose Enhancement EC50 Ratio (10 μM test compound): A (an enhancement ratio of greater than 1 and less than 10)
- Sucralose Enhancement EC50 Ratio (10 μM test compound): B (an enhancement ratio from 10 to 20)
- Sucrose Enhancement EC50 Ratio (10 μM test compound): B (an enhancement ratio from 10 to 20)

Structure (SMILES): Cc1nc2cccc(O[C@H]3CC[C@H](Nc4ncc(F)cn4)CC3)c2c(N)c1C(=O)O [Compound 704]
- Sucrose Enhancement EC50 Ratio (1 μM test compound): A (an enhancement ratio of greater than 1 and less than 10)
- Sucralose Enhancement EC50 Ratio (3 μM test compound): B (an enhancement ratio from 10 to 20)
- Sucrose Enhancement EC50 Ratio (3 μM test compound): A (an enhancement ratio of greater than 1 and less than 10)
- Fructose Enhancement EC50 Ratio (10 μM test compound): A (an enhancement ratio of greater than 1 and less than 10)
- Sucralose Enhancement EC50 Ratio (10 μM test compound): B (an enhancement ratio from 10 to 20)
- Sucrose Enhancement EC50 Ratio (10 μM test compound): B (an enhancement ratio from 10 to 20)
- Fructose Enhancement EC50 Ratio (50 μM test compound): A (an enhancement ratio of greater than 1 and less than 10)

Structure (SMILES): Cc1cnc(N[C@H]2CC[C@H](Oc3cccc4nc(C)c(C(=O)O)c(N)c34)CC2)nc1 [Compound 705]
- Sucrose Enhancement EC50 Ratio (1 μM test compound): A (an enhancement ratio of greater than 1 and less than 10)
- Sucralose Enhancement EC50 Ratio (3 μM test compound): A (an enhancement ratio of greater than 1 and less than 10)
- Sucrose Enhancement EC50 Ratio (3 μM test compound): B (an enhancement ratio from 10 to 20)
- Fructose Enhancement EC50 Ratio (10 μM test compound): A (an enhancement ratio of greater than 1 and less than 10)
- Sucralose Enhancement EC50 Ratio (10 μM test compound): B (an enhancement ratio from 10 to 20)
- Sucrose Enhancement EC50 Ratio (10 μM test compound): B (an enhancement ratio from 10 to 20)

Structure (SMILES): CCCc1cnc(N[C@H]2CC[C@H](Oc3cccc4nc(C)c(C(=O)O)c(N)c34)CC2)nc1 [Compound 706]
- Sucrose Enhancement EC50 Ratio (1 μM test compound): A (an enhancement ratio of greater than 1 and less than 10)
- Sucralose Enhancement EC50 Ratio (3 μM test compound): A (an enhancement ratio of greater than 1 and less than 10)
- Sucrose Enhancement EC50 Ratio (3 μM test compound): A (an enhancement ratio of greater than 1 and less than 10)
- Fructose Enhancement EC50 Ratio (10 μM test compound): A (an enhancement ratio of greater than 1 and less than 10)
- Sucralose Enhancement EC50 Ratio (10 μM test compound): B (an enhancement ratio from 10 to 20)
- Sucrose Enhancement EC50 Ratio (10 μM test compound): B (an enhancement ratio from 10 to 20)
- Fructose Enhancement EC50 Ratio (50 μM test compound): A (an enhancement ratio of greater than 1 and less than 10)

Structure (SMILES): COc1ccnc(N[C@H]2CC[C@H](Oc3cccc4nc(C)c(C(=O)O)c(N)c34)CC2)n1 [Compound 707]
- Sucrose Enhancement EC50 Ratio (1 μM test compound): A (an enhancement ratio of greater than 1 and less than 10)
- Sucralose Enhancement EC50 Ratio (3 μM test compound): A (an enhancement ratio of greater than 1 and less than 10)
- Sucrose Enhancement EC50 Ratio (3 μM test compound): A (an enhancement ratio of greater than 1 and less than 10)
- Fructose Enhancement EC50 Ratio (10 μM test compound): A (an enhancement ratio of greater than 1 and less than 10)
- Sucralose Enhancement EC50 Ratio (10 μM test compound): B (an enhancement ratio from 10 to 20)
- Sucrose Enhancement EC50 Ratio (10 μM test compound): B (an enhancement ratio from 10 to 20)
- Fructose Enhancement EC50 Ratio (50 μM test compound): A (an enhancement ratio of greater than 1 and less than 10)

Structure (SMILES): Cc1ccnc(N[C@H]2CC[C@H](Oc3cccc4nc(C)c(C(=O)O)c(N)c34)CC2)n1 [Compound 708]
- Sucrose Enhancement EC50 Ratio (1 μM test compound): A (an enhancement ratio of greater than 1 and less than 10)
- Sucralose Enhancement EC50 Ratio (3 μM test compound): C (an enhancement ratio greater than 20)
- Sucrose Enhancement EC50 Ratio (3 μM test compound): C (an enhancement ratio greater than 20)
- Fructose Enhancement EC50 Ratio (10 μM test compound): A (an enhancement ratio of greater than 1 and less than 10)
- Sucralose Enhancement EC50 Ratio (10 μM test compound): C (an enhancement ratio greater than 20)
- Sucrose Enhancement EC50 Ratio (10 μM test compound): C (an enhancement ratio greater than 20)

Structure (SMILES): CCCc1ccnc(N[C@H]2CC[C@H](Oc3cccc4nc(C)c(C(=O)O)c(N)c34)CC2)n1 [Compound 709]
- Sucrose Enhancement EC50 Ratio (1 μM test compound): A (an enhancement ratio of greater than 1 and less than 10)
- Sucralose Enhancement EC50 Ratio (3 μM test compound): A (an enhancement ratio of greater than 1 and less than 10)
- Sucrose Enhancement EC50 Ratio (3 μM test compound): A (an enhancement ratio of greater than 1 and less than 10)
- Sucralose Enhancement EC50 Ratio (10 μM test compound): A (an enhancement ratio of greater than 1 and less than 10)
- Sucrose Enhancement EC50 Ratio (10 μM test compound): A (an enhancement ratio of greater than 1 and less than 10)
